Measured values reported in patent US4822791A, “Pharmaceutical compositions of-2,2-1,1-[bis-2,2'-(3,1-benzoxazin-4-one)9 ethylenes” (priority 1984, dated 1989).
Several values for one entry are separate records, joined by “and”; a condition that tells them apart may be missing. Identical values can stand only once. Like-named read-outs stand apart in the source and are kept apart here.

Tests used:
[1] = system: Mast cell in thoracic cavity; assay: Release of histamine by dextran (T-500), mast cell in thoracic cavity (Test Example 12); type: cell-based, rat
Procedure: (§1) Collection of mast cells in abdominal cavity and thoracic cavity and sensitizing of cells were conducted in similar manners to those in Test Example 10, respectively.
(§2) The sample solution was treated with 105 microgramms/ml phosphatidylserin PBS solution (0.5 ml) and incubated at 37° C. for 30 minutes, followed by addition of 25 mg/ml dextran (T-500) PBS solution (0.5 ml) and further incubation for 15 minutes.
(§3) This is conducted in a manner similar to that in Test Example 10.

[2] = system: mast cell in abdominal cavity; assay: Release of histamine by dextran (T-500), mast cell in abdominal cavity (Test Example 12); type: cell-based, rat
Procedure: as §1, §2, §3

[3] = system: passive cutaneous anaphylaxis (PCA); assay: Anti-passive cutaneous anaphylaxis activity (PCA) in rats (Test Example 9); type: in vivo; conditions: Rattus norvegicus, po, 10 animals
Procedure: (§4) Wistar strain rats were sensitized with ovalbumin using aluminium hydroxide gel and Bordetella Pertussis vaccine as adjuvants. Dilutions of antiserum (16-fold and 32-fold) obtained by collecting blood samples 14 days later were administered subcutaneously in the dorsal skin of the rats of the same strain at the rate of 0.1 ml per spot, and the rats were grown for 48 hours. One hour after peroral administration of the sample solution, a mixture of antigen ovalbumin and Evans-blue dye was administered to the tail venous of the animal according to the ordinary procedure. Thirty minutes later, the animals were sacrificed by exsanguination, and the areas of blue spots (long diameter×short diameter) eliciting on the portion of the antiserum injection at the dorsal skin were measured to obtain the rate of inhibition based on the average value shown by the control animals.
This test was conducted in a manner similar to that in Test Example 2, except that the dilutions of antiserum were 12- and 24-folds.

[4] = system: mast cell in abdominal cavity; assay: Release of histamine by antigen DNP-Ascaris, mast cell in abdominal cavity (Test Example 12); type: cell-based, rat; conditions: 10^-3 M; stronger than DSCG
Procedure: as §1
(1) Preparation of DNP-Ascaris antiserum was conducted in manner similar to that in Test Example 6.
This is conducted in amanner similar to that in Test Example 10.
as §3

[5] = Acute toxicity LD50 in mice (Test Example 8); conditions: mouse, in vivo, one week, Probit method
Procedure: ddy-Strain mice (male) and Wistar strain rats were used to obtain LD50 values.
According to the ordinary procedure, suspension or solution of test sample was administered to the animals. From the number of the died animals until one week after the administration, LD50 values were obtained by Probit method.

[6] = Acute toxicity LD50 in ICR mice (Test Example 11); conditions: mouse, in vivo, one week, Provit method
Procedure: As test animals, ICR-strain mice (male) were used. According to the conventional procedure, suspension or solution of test sample was administered to the animals. From the number of the died animals until one week after the administration, LD50 values were obtained by Provit method.

[7] = system: passive cutaneous anaphylaxis (PCA); assay: Anti-passive cutaneous anaphylaxis (PCA) activity in rats (Test Example 2); type: in vivo, Wistar strain rats; conditions: Rattus norvegicus, N 10; for inhibition in vivo at 10 mg/kg: 10 mg/kg PO; for inhibition in vivo at 50 mg/kg: 50 mg/kg PO; for inhibition in vivo at 100 mg/kg: 100 mg/kg PO; for inhibition in vivo at 200 mg/kg: 200 mg/kg PO
Procedure: as §4

[8] = system: mast cell in abdominal cavity; assay: Histamine release by antigen DNP-Ascaris, mast cell in abdominal cavity (Test Example 10); type: cell-based, rat; conditions: 10^-3 M
Procedure: (§5) Examination was made cn the activity of inhibition of histamine release from mast cell by antigen-antibody reaction.
(§6) Preparation of DNP-Ascaris antiserum was conducted in a manner similar to that in Test Example 6.
(§7) Heparin-containing PBS was injected into the abdominal cavity of rat which was sacrificed by bleeding, after which the abdomen was well massaged, and then peritoneal exudate was sampled. The same liquid was also injected into the thoracic cavity, and after shaking the breast for several minutes, the thoracic cavity liquid was sampled, which was purified by washing several times by centrifugation. The number of the mast cells contained in this liquid was measured and adjusted to a designated concentration. (Mast cells, 8.0×10^4 cells/ml).
(§8) To the cell suspension (4 ml, 9×10^5 cells/ml), anti-DNP-Ascaris rat serum (PCA titer, 32) (4 ml) was added, and the mixture was incubated in the presence of heparin at 37° C. for 2.5 hours. To the solution, 70 microgramms/ml phosphatidylserin PBS solution (0.5 ml) was added and the mixture was incubated at 37° C. for 12 minutes, after which 140 microgramms/ml antigen DNP-Ascaris PBS solution (0.5 ml) was added and the mixture was incubated further for 20 minutes.
After completion of the reaction, the reaction liquid was centrifuged (500 G, 10 min.) to obtain supernatant solution, and histamin in the supernatant solution was subjected to fluorometry by orthophthalal aldehyde method. The released amount of histamin in the control was shown as 100.

[9] = system: Mast cell in thoracic cavity; assay: Histamine release by antigen DNP-Ascaris, mast cell in thoracic cavity (Test Example 10); type: cell-based; conditions: Rattus norvegicus, 20 min, 10^-3 M, read-out: released amount of histamin, Mast cell in thoracic cavity (control shown as 100)
Procedure: as §5, §6, §7
as §8, with “minutes. […]” for “minutes.”

[10] = system: mast cell in abdominal cavity; assay: Inhibition of histamine release from mast cell in abdominal cavity in rat (Test Example 6); type: cell-based; conditions: for activity at 1000 µM / activity at 100 µM / activity at 10 µM / activity at 1 µM: Rattus norvegicus, Mast cell, 20 min, DNP-Ascaris 20 microgramms/ml, read-out: Amount of histamine released from peritoneal mast cell (Control = 100); for activity at 1000 µM: 10^-3 M; for activity at 100 µM: 10^-4 M; for activity at 10 µM: 10^-5 M; for activity at 1 µM: 10^-6 M
Procedure: Examination was made on the activity of inhibition of histamine release from mast cell by antigen-antibody reaction.
Swine ascaris extract solution was dinitrophenylated according to Aisen's method, dialysed, and lyophilized. The product was administered as antigen together with Bordetella Pertussis vaccine subcutaneously into the foot pad of rat. Eight days later, blood was taken to obtain antiserum. The PCA titer for this antiserum in rat was 32 to 64.
Heparin-containing PBS was injected intraperitoneally to rat which was sacrificed by exsanguination, after which the abdomen was well massaged to collect the injected PBS, which was purified by washing several times by centrifugation. The number of the mast cells contained in the solution was determined and adjusted to the designed concentration. As to method of sensitizing the cell, the above cell suspension (6 ml, 2×10^6 cells/ml) was treated with anti-DNP-Ascaris rat serum (PCA titer 32) (6 ml) and the mixture was incubated in the presence of hepain at 37° C. for 2 hours.
To the sensitized mast cell suspension the solution of the drug to be tested was added, and the mixture was preliminarily incubated at 37° C. for 12 minutes. After addition of the solution of antigen DNP-Ascaris (final concentration, 20 microgramms/ml), the mixture was further incubated for 20 minutes. After completion of the reaction, the solution was centrifuged (500 G, 10 min.) under a low temperature to obtain a supernatant solution. Histamine contained in the supernatant solution was subjected to fluorometry by crthophthalaldehyde method.

hyaluronidase = conditions: known from the literature; cited from earlier work
[11] = system: anaphylaxis reaction to inhalated antigen; assay: Antigen inhalation test on passive sensitized guinea pig (experimental asthma model); type: in vivo; conditions: 200 mg/kg po
Procedure: The test compound and Tranilast were respectively suspended at the time of use in 5% gum arabic solution containing 0.1% Tween 80 at the rate of 40 mg/ml, and were perorally administered at the rate of 0.5 ml per 100 g body weight of the animal.
DSCG was dissolved at the time of use in physiological saline solultion for injection at the rate of 5.0 mg/ml, and was intravenously injected at the rate of 0.1 ml per 100 g body weight of the animal.
Anti-ovalbumin rabbit serum diluted with physiological saline solution for injection so as tc contain anti-ovalbumin rabbit antibody at the rate of 0.187 mg N/ml was intravenously administered to guinea pig at the rate of 0.1 ml per 100 g of body weight and it was passively sensitized.
Twenty-four hours later, the suspension of the compound prepared in (1) above was perorally or intravenously administered to the animal. The animal was put in the inhalation chamber one hour after the administration in case of the peroral administration and five minutes after the administration in case of the intravenous administration, and 2% physiological saline solution of antigen ovalbumin was inhaled by spraying. Over 10 minutes' period from the time immediately after the forced inhalation, the time until its fall attributed to anaphylaxis reaction was recorded, and the numbers of alive and dead animals after lapse of 10 minutes were also counted.

SRS-A = assay: Anti-SRS-A activity, contraction of guinea pig ileum by crude SRS-A solution; design: key to Anti-SRS-A activity (rate of inhibition against the contraction amount): % inhibition of SRS-A-induced ileum contraction
Procedure: A piece of lungs of guinea pig sensitized with ovalbumin was incubated with antigen ovalbumin at 37° C. for 20 minutes to obtain a supernatant solution, which was used as a crude SRS-A solution.
A piece of ileum of normal guinea pig was suspended in Magnus tube filled with Tyrode's solution and incubated with the solution of drug to be examined for a certain duration, and the contraction of the piece of ileum induced by adding the above crude SRS-A solution was determined on the basis of the contraction rate attributed to hystamine dihydrochloride 10^-6 M. The rate of inhibition against the contraction amount was taken as anti-SRS-A activity.

[12] = read-out: Inhibition, Anti-serum Dilution: × 12
[13] = read-out: Inhibition, Anti-serum Dilution: × 24
[14] = intravenous, read-out: LD50 Value (mg/kg of body weight) Intravenous administration
[15] = read-out: Average Inhibition Rate (%) Antiserum Dilution: × 16
[16] = read-out: Average Inhibition Rate (%) Antiserum Dilution: × 32
[17] = po, peroral, read-out: LD50 Value (mg/kg of body weight) Peroral administration

Molecule | inhibition in vivo at 10 mg/kg [3, 12] | inhibition in vivo at 10 mg/kg [3, 13] | inhibition in vivo at 50 mg/kg [3, 12] | inhibition in vivo at 50 mg/kg [3, 13] | LD50 at 168 h [6, 14] | inhibition in vivo at 10 mg/kg [7, 15] | inhibition in vivo at 10 mg/kg [7, 16] | inhibition in vivo at 50 mg/kg [7, 15] | inhibition in vivo at 50 mg/kg [7, 16] | inhibition in vivo at 100 mg/kg [7, 15] | inhibition in vivo at 100 mg/kg [7, 16] | LD50 at 168 h [6, 17] | activity at 1000 µM [10] | activity at 100 µM [10] | activity at 10 µM [10] | activity at 1 µM [10] | effect on hyaluronidase activity (in words) (hyaluronidase) | further results
CCOC(=O)c1ccccc1NC(=O)C(=Cc1ccccc1)C(=O)Nc1ccccc1C(=O)OCC [Compound 14, Diethyl 2,2'-[(1,3-dioxo-2-phenylmethylene-1,3-propanediyl)diimino]bisbenzoate] | 29.8% | 31.3% | 36.7% | 40.5% | 347 mg/kg | 38.6% | 38.7% | 41.9% | 72.2% | 59.3% | 85.1% |  |  |  |  |  |  | Effect on release of histamine by dextran (T-500), Mast cell in thoracic cavity (control 100) ([1]; 10^-4, 15 min): 55.6; activity at 1000 µM ([1]; Rattus norvegicus, Mast cell, 0.25 h, 10^-3 M, read-out: Effect on release of histamine by dextran (T-500), Mast cell in thoracic cavity (control 100)): 42.2%; histamine release inhibiting activity, dextran (T-500) (in words) ([2]; 10^-4 and 10^-3 M, almost the same as DSCG): histamine release inhibiting activities; activity at 1000 µM ([2]; Rattus norvegicus, Mast cell, 0.25 h, 10^-3 M, read-out: Effect on release of histamine by dextran (T-500), Mast cell in abdominal cavity (control 100)): 40.2%; activity at 100 µM ([2]; Rattus norvegicus, Mast cell, 0.25 h, 10^-4 M, read-out: Effect on release of histamine by dextran (T-500), Mast cell in abdominal cavity (control 100)): 94.5%; histamine release inhibiting activity, antigen DNP-Ascaris (in words) [4]: histamine release inhibiting activity; LD50 at 168 h ([5]; iv, read-out: LD50 value (mg/kg body weight) Mouse i.v.): 299 mg/kg; LD50 at 168 h ([5]; po, read-out: LD50 value (mg/kg body weight) Mouse p.o.): > 10000 mg/kg
COC(=O)c1ccccc1NC(=O)C(=Cc1ccccc1)C(=O)Nc1ccccc1C(=O)OC [Compound 51] | 28.1% | 30.3% | 34.2% | 37.5% | 238 mg/kg |  |  |  |  |  |  | ≥ 8000 mg/kg |  |  |  |  |  | inhibition of release of histamine from mast cells in abdominal and thoracic cavity (in words) [8]: action of inhibiting release of histamine; activity at 1000 µM ([8]; Rattus norvegicus, Mast cell, 20 min, read-out: released amount of histamin, Mast cell in abdominal cavity (control shown as 100)): 50.4%; activity at 1000 µM [9]: 75.1%
O=c1oc(C(=Cc2ccccc2)c2nc3ccccc3c(=O)o2)nc2ccccc12 [Compound 52, 2,2'-phenylethenilidenebis(3,1-benzoxazine-4-one)] |  |  |  |  | 319 mg/kg | 20.6% | 29.4% | 37.9% | 38.3% | 45% | 47.1% | > 10000 mg/kg | 21% | 60% | 68% | 70% |  | inhibition of release of histamine from the mast cell (in words) ([10]; even at the low concentration of 10^-6 M): inhibiting release of histamine
COc1ccc(/C=C/C(=O)Nc2ccccc2C(=O)O)cc1OC [Tranilast, reference compound] |  |  |  |  |  |  |  |  |  |  |  |  | 29% | 67% | 95% | 95% | inhibit hyaluronidase activity | Extended rate (%) [11]: -3.0%; preventive effect on anaphylaxis reaction (in words) [11]: no activity; Average time for falling Mean ± S.E. ([11]; N 5): 150.8 ± 14.8 s; Required time (sec.) for falling and Number of death (#), single animals ([11]; N 5, observed 10 minutes, # shows death): 116 s and 126 s and 141 s and 181 s and 190 s; inhibition in vivo at 200 mg/kg [3, 12]: 2.1%; inhibition in vivo at 200 mg/kg [3, 13]: 10.7%; inhibition in vivo at 200 mg/kg [7, 15]: 1.8%; inhibition in vivo at 200 mg/kg [7, 16]: 15.8%; Anti-SRS-A activity (rate of inhibition against the contraction amount) (SRS-A; 10^-3 M): 0; Anti-SRS-A activity (rate of inhibition against the contraction amount) (SRS-A; 10^-4 M): 0; Anti-SRS-A activity (rate of inhibition against the contraction amount) (SRS-A; 10^-5 M): 0; Anti-SRS-A activity (rate of inhibition against the contraction amount) (SRS-A; 10^-6 M): 0; anti-SRS-A activity (in words) (SRS-A; compound 11 at a concentration of 10^-3 M): no activity
polymixin B |  |  |  |  |  |  |  |  |  |  |  |  |  |  |  |  | activate hyaluronidase | 
